Measured values: article PMC12841663, “Antiprotozoal Potential of Cultivated Geranium macrorrhizum Against Giardia duodenalis, Trichomonas gallinae and Leishmania infantum” (International Journal of Molecular Sciences, 2026)
Converted amounts (≈) assume the structure as drawn. “Also recorded” adds a separate entry of the source.

Key:
[1] = system: intracellular amastigotes of L. infantum; assay: Infection index of DH82 macrophages infected with L. infantum (intracellular amastigotes); type: cell-based, Leishmania infantum; conditions: for nº Amastigotes/Infected Cell / % Infected Cells / Infection Index: DH82 macrophages, 48 h
Description: Anti-Leishmania (AL) activity was assessed on L. infantum promastigotes (MCAN/ES/98/LLM-722), kindly provided by Dr. J.M. Requena from CBM-CSIC, as well as on L. infantum (M/CAN/ES/96/BCN150 zymodeme MON-1), strain isolated from a dog with active visceral leishmaniasis. L. infantum promastigotes (MCAN/ES/98/LLM-722) were cultured in RPMI medium supplemented with 15% FBS and 10 μg/mL of hemin (Acros Organics, Madrid, Spain), grown at 26 °C. Promastigotes in logarithmic growth were seeded in 96-well flat-bottom plates at a volume of 100 μL of culture per well and incubated for 48 h. Promastigotes for macrophage infection (M/CAN/ES/96/BCN150 zymodeme MON-1) were maintained at 26 °C in Schneider’s insect medium (Lonza, Basel, Switzerland) supplemented with 10% FBS and 100 U/mL penicillin and 100 μg/mL streptomycin (Lonza, Basel, Switzerland) (Pen-Strep). Promastigotes in the stationary phase of growth (5–6 days) were washed twice in phosphate-buffered saline at 2700× g for 10 min at 22 °C and employed for macrophage infection.
Canine DH82 (ATCC®-CRL-10389TM) macrophages were maintained in Dulbecco’s modified Eagle’s medium (DMEM) (Thermo Fisher Scientific, Waltham, MA, USA) supplemented with 10% heat-inactivated FBS (Thermo Fisher Scientific, Waltham, MA, USA), and Pen-Strep at 37 °C in 5% CO2.
DH82 cells (5 × 10^4 per well) were seeded in LabTek culture chamber slides (Thermo Scientific, Nunc™, Roskilde, Denmark) and incubated overnight at 37 °C and 5% CO2. On the following day, macrophages were infected with L. infantum stationary phase-promastigotes at a ratio of 5:1 parasites/macrophage and after 4 h of incubation at 37 °C, a time point that reflects initial infection, extracellular promastigotes were removed by washing. Germacrone was added at varying concentrations (10, 50 and 100 μg/mL) and macrophages were incubated in fresh medium for 48 h at 37 °C and 5% CO2. After Giemsa staining, cells were mounted with Vitro-Clud (Deltalab SLU, Barcelona, Spain), and 400 macrophages were counted in duplicate in a microscope Olympus BX41 (Olympus Corporation, Tokyo, Japan). The percentage of infected macrophages and the mean of the number of amastigotes per infected macrophage (defined as the intensity of infection) were evaluated. The infection index was calculated by multiplication of both parameters to account for the overall parasite load.

[2] = Cytotoxicity of pure compounds on Vero cells (MTT); type: cell-based; conditions: African green monkey
Description: African green monkey kidney cells (Vero cells) were maintained in Dulbecco’s modified Eagle’s minimal essential medium (DMEM) (Thermo Fisher Scientific, Waltham, MA, USA) supplemented with 10% FBS and 1% Pen-Strep at 37 °C under a humidified atmosphere of 5% CO2/95% air.
Cells seeded in 96-well flat-bottom microplates with 100 μL medium per well (initial densities 10^4 cells per well) were exposed for 48 h to serial dilutions (100, 75, 50, 25, 10 and 1 µg/mL) of the tested compounds in DMSO (<1% final concentration). Cell viability was analyzed by the MTT colorimetric assay method, and the purple-colored formazan precipitate was dissolved with 100 μL of DMSO [23].
Data was analyzed using STATGRAPHICS Centurion XIX (https://www.statgraphics.com) (Statgraphics Technologies, Inc., The Plains, VA, USA). The mammalian cells and trophozoites viability were tested with each compound in a dose–response experiment to calculate their relative potency (CC50 or IC50 value, respectively). IC50 (μg/mL) expresses the dose of EOs, extracts or pure compounds needed to produce 50% mortality of trophozoites, while CC50 (μg/mL) expresses the dose of compounds necessary to produce 50% mortality of Vero cells.

[3] = system: T. gallinae trophozoites; assay: Morphological evaluation by light microscopy (Diff-Quik), T. gallinae; type: cell-based, Trichomonas gallinae; conditions: germacrone 100 µg/mL
Source text: At each time point, quadruplicates were assigned per condition: growth control, germacrone, and the corresponding positive control (metronidazole or amphotericin B). For microscopy, quadruplicate wells corresponding to the same condition/time point were pooled prior to centrifugation to obtain sufficient biomass and a representative pellet for smear preparation. Pooled samples per condition/time point were centrifuged, resuspended in FBS and spread onto microscope slides. Once dried, samples were fixed and stained with Diff-Quik (Medion Diagnostic AG, […], Switzerland) following the manufacturer's instructions. Additionally, three wells per condition (triplicates) were used for the MTT assay, with absorbance measured by spectrophotometry after 48 h. Morphological changes were analyzed using light microscopy. Experiments were performed as independent biological replicates on different plates, and one Diff-Quik stained smear was obtained per condition and time point per biological replicate. For morphometric analysis, a total of 30 trophozoites per condition and time point were measured across the independent biological replicates and were selected by consecutive sampling during a predefined serpentine (zig-zag) scan across the preparation. Up to two eligible trophozoites per field (intact, well-focused and non-overlapping) were measured in sequential fields until n = 30 was reached, avoiding subjective selection of “representative” cells. Overlapping, partially visible, out-of-focus, edge-of-field, or debris-obscured trophozoites were excluded a priori. Trophozoites were photographed using a researcher's mobile phone mounted to the microscope ocular. Calibration was performed at the same magnification using a stage micrometre and applied in ImageJ v. 1.54d. One Diff-Quik stained smear was obtained per condition/time point per biological replicate Cell length, cell width, cell surface, nuclear length, nuclear width, axoneme (only Giardia), and length of axostyle (only T. gallinae) were measured with ImageJ software, and the data were recorded in an Excel database for statistical analysis. The Shapiro-Wilk test was used to assess the normality of the morphological variables. When data followed a normal distribution, Student's t-test was applied; otherwise, non-parametric tests, such as the Mann-Whitney U test, was used. Values of p < 0.05 were considered significant. For the morphological analysis, the mean, standard deviation, median, and interquartile range were calculated using SPSS version 20 (IBM Corp., Armonk, NY, USA).

[4] = metronidazole 10 µg/mL, 0.5 and 48 h, control DMSO 1%

CC(C)=C1C/C=C(\C)CC/C=C(\C)CC1=O [Compound 2, germacrone]
nº Amastigotes/Infected Cell ([1]; 10 µg/mL): 2.4 ± 1.1
% Infected Cells ([1]; 10 µg/mL, control of infection 42.8, listed as Germacrone (2)): 25.9 ± 8.3 %
% Infected Cells ([1]; 10 µg/mL, control of infection 42.8, listed as germacrone (2)): 25.9%
Infection Index ([1]; 10 µg/mL, control of infection 152.1, listed as Germacrone (2)): 61.0 ± 9.4
Infection Index ([1]; 10 µg/mL, control of infection 152.1, listed as germacrone (2)): 61.0
reduction of the infection index ([1]; 10 µg/mL, from 152.1 (control) to 61.0): more than 50%
% Infected Cells ([1]; 50 µg/mL): dead cells
Infection Index ([1]; 50 µg/mL): dead cells
nº Amastigotes/Infected Cell ([1]; 50 µg/mL): dead cells
% Infected Cells ([1]; 100 µg/mL): dead cells
Infection Index ([1]; 100 µg/mL): dead cells
nº Amastigotes/Infected Cell ([1]; 100 µg/mL): dead cells
CC50 at 48 h [2]: ~100 mg/L (≈ 458 µM)
axostyle length vs control [3, 4]: decreased at 0.5 h; also recorded: after 48 h, it increased
cell length vs control [3, 4]: increase after 48 h
cell surface area vs control [3, 4]: decreased transiently at 0.5 h but increased at 48 h
cell width vs control [3, 4]: significant decrease exclusively in germacrone-treated parasites compared to the control at 0.5 h
nuclear length vs control [3, 4]: increased upon germacrone exposure
nuclear width vs control [3, 4]: diminished at 0.5 h; also recorded: By 48 h, nuclear width increased
morphological changes (light microscopy) ([3]; 48 h of exposure, Diff-Quik): elongation of the cytoplasm and the nucleus
